Source: US20190203240A1, “METHODS FOR THE PRODUCTION OF RHAMNOSYLATED FLAVONOIDS” (Universitaet Hamburg, priority 2016, published 2019)
“And” between values parts separate entries of the source, which are not always exact repeats. Equal entries are not always repeated.

Assays:
[1] = test system: PGE2; assay: Anti-inflammatory potential: secreted PGE2 in stimulated NHEK (ELISA); assay type: cell-based, human; conditions: PMA stimulation, 100 μM
Procedure: (§1) NHEK were pre-incubated for 24 h with the test compounds. The medium was replaced with the NHEK culture medium containing the inflammatory inducers (PMA or Poly I:C) and incubated for another 24 hours. Positive and negative controls ran in parallel. At the endpoint the culture supernatants were quantified of secreted IL-8, PGE2 and TNF-α, by means of ELISA.

[2] = test system: hydrogen peroxide (DHR) in NHEK cells; assay: Protection against UV-induced H2O2 stress in NHEK (DHR probe, flow cytometry); assay type: cell-based, human; conditions: 180 mJ/cm^2 UVB (2839 mJ/cm^2 UVA), 100 μM
Procedure: Pre-incubated NHEK were incubated with the test compound for 24 h. Then the specific fluorescence probe for the measurement of hydrogen peroxide (DHR) or lipid peroxides (C11-fluor) was added and incubated for 45 min. Irradiation occurred with in H2O2 determination UVB at 180 mJ/cm^2 (+UVA at 2839 mJ/cm^2) or UVB at 240 mJ/cm^2 (+UVA at 3538 mJ/cm^2) in lipid peroxide, respectively, using a SOL500 Sun Simulator lamp. After irradiation the cells were post-incubated for 30 min before flow-cytometry analysis.

[3] = test system: TNF-α; assay: Anti-inflammatory potential: secreted TNF-α in stimulated NHEK (ELISA); assay type: cell-based, human; conditions: poly(I:C) stimulation, 100 μM
Procedure: as §1

[4] = test system: matrix metallopeptidase 1 (MMP-1); assay: MMP-1 release in UVA-irradiated NHDF (ELISA); assay type: cell-based, human
Procedure: (§2) Tests were performed with normal human dermal fibroblast cultures at the 8th passage. Cells were grown in DMEM supplemented with glutamine at 2 mM, penicillin at 50 U/mL and streptomycin (50 μg/mL) and 10% of fetal calf serum (FCS) at 37° C. in a 5% CO2 atmosphere.
Human fibroblasts were cultured for 24 hours before the cells were pre-incubated with the test or reference compounds (dexamethasone) for another 24 hours. The medium was replaced by the irradiation medium (EBSS, CaCl2) 0.264 g/L, MgClSO4 0.2 g/L) containing the test compounds) and cells were irradiated with UVA (15 J/cm^2). The irradiation medium was replaced by culture medium including again the test compounds incubated for 48 hours. After incubation the quantity of matrix metallopeptidase 1 (MMP-1) in the culture supernatant was measured using an ELISA kit.

[5] = test system: normal human epidermal keratinocytes (NHEK); assay: Cytotoxicity on NHEK monolayer (MTT reduction assay and morphological observation); assay type: cell-based; conditions: MTT; for Viability (%): single values, listed as Nar-5-Rha
Procedure: To determine the cytotoxicity of flavonoid-5-O-α-L-rhamnosides tests were performed versus their aglycon derivatives in cell monolayer cultures. For this purpose concentrations ranging from 1 μM to 250 μM were chosen. The viability of normal human epidermal keratinocytes (NHEK) was twice evaluated by a MTT reduction assay and morphological observation with a microscope. NHEK were grown at 37° C. and 5% CO2 aeration in Keratinocyte-SFM medium supplemented with epidermal growth factor (EGF) at 0.25 ng/mL, pituitary extract (PE) at 25 μg/mL and gentamycin (25 μg/mL) for 24 h and were used at the 3rd passage. For cytotoxicity testing, pre-incubated NHEK were given fresh culture medium containing a specific concentration of test compound and incubated for 24 h. After a medium change at same test concentration cells were incubated a further 24 h until viability was determined. Test results are given in Table B2 and illustrated in FIG. 10.

[6] = test system: procollagen I; assay: Stimulation of procollagen I synthesis in NHDF (ELISA); assay type: cell-based, human; conditions: 72 hours, 100 μM
Procedure: as §2
(§3) Fibroblasts were cultured for 24 hours before the cells were incubated with the test compounds for further 72 hours. After the incubation the culture supernatants were collected in order to measure the released quantities of procollagen I, VEGF, and fibronectin by means of ELISA. Reference test compounds were vitamin C (procollagen I), PMA (VEGF), and TGF-β (fibronectin).

[7] = test system: NF-κB; assay: NF-κB activity in NIH3T3-KBF-Luc cells stimulated with TNFα (luciferase); assay type: cell-based; conditions: +30 ng/ml TNFα
Procedure: NIH3T3-KBF-Luc cells were stably transfected with the KBF-Luc plasmid (Sancho (2003) Mol Pharmacol 63:429-438), which contains three copies of NF-κB binding site (from major histocompatibility complex promoter), fused to a minimal simian virus 40 promoter driving the luciferase gene. Cells (1×10^4 for NIH3T3-KBF-Luc) were seeded the day before the assay on 96-well plate. Then the cells were treated with the test substances for 15 min and then stimulated with 30 ng/ml of TNFα. After 6 h, the cells were washed twice with PBS and lysed in 50 μl lysis buffer containing 25 mM Tris-phosphate (pH 7.8), 8 mM MgCl2, 1 mM DTT, 1% Triton X-100, and 7% glycerol during 15 min at RT in a horizontal shaker. Luciferase activity was measured using a GloMax 96 microplate luminometer (Promega) following the instructions of the luciferase assay kit (Promega, Madison, Wis., USA). […] The experiments for each concentration of the test items were done in triplicate wells.

[8] = test system: fibronectin; assay: Stimulation of fibronectin synthesis in NHDF (ELISA); assay type: cell-based, human; conditions: 100 μM
Procedure: as §2, §3

[9] = NHDF irradiated 15 J/cm^2 UVA, 100 μM

C[C@@H]1O[C@@H](Oc2cc(O)cc3c2C(=O)CC(c2ccc(O)cc2)O3)[C@H](O)[C@H](O)[C@H]1O (mixture of isomers) [NR1, Naringenin-5-O-α-L-rhamnoside]
Cytokine [pg/mL] PGE2 Mean [1]: 1271 pg/mL | PGE2 % stim. control [1]: 81% | Cytokine [pg/mL] PGE2 ([1]; single values): 851 pg/mL and 1691 pg/mL | H2O2 % irradiated control [2]: 136% | H2O2 (AU) Mean [2]: 2516.5 AU | H2O2 Protection % [2]: −44% | H2O2 (AU) (DHR GMFI) ([2]; single values): 2531 AU and 2502 AU | Cytokine [pg/mL] TNFα Mean [3]: 516 pg/mL | TNFα % stim. control [3]: 92% | Cytokine [pg/mL] TNFα ([3]; single values): 516 pg/mL | MMP-1 % Irradiated control [4, 9]: 338% | MMP-1 % Protection [4, 9]: −372% | MMP-1 (ng/ml), single replicates [4, 9]: 211.7 ng/mL and 268.8 ng/mL | Mean MMP-1 [4, 9]: 240.3 ng/mL | upregulation of MMP-1 biosynthesis ([4]; NHDF, UV-irradiated conditions): ~4 fold | Viability (%) Mean ([5]; 1 μM): 101% | Viability (%) ([5]; 1 μM): 91% and 111% | Viability (%) Mean ([5]; 2.5 μM): 93% | Viability (%) ([5]; 2.5 μM): 92% and 93% | Viability (%) Mean ([5]; 5 μM): 86% | Viability (%) ([5]; 5 μM): 85% and 88% | Viability (%) Mean ([5]; 10 μM): 97% | Viability (%) ([5]; 10 μM): 94% and 100% | Viability (%) Mean ([5]; 25 μM): 95% | Viability (%) ([5]; 25 μM): 92% and 98% | Viability (%) Mean ([5]; 50 μM): 84% | Viability (%) ([5]; 50 μM): 78% and 91% | Viability (%) Mean ([5]; 100 μM): 86% | Viability (%) ([5]; 100 μM): 82% and 90% | Viability (%) Mean ([5]; 250 μM): 83% | Viability (%) ([5]; 250 μM): 79% and 87% | Procollagen I % Control [6]: 66% | Procollagen I % Stimulation [6]: −34% | Procollagen I Mean [6]: 1097 ng/mL | Procollagen I ([6]; single values): 1334 ng/mL and 860 ng/mL | % Activation (NF-κB; TNFα = 100%) ([7]; 10 μM): 114.0% | RLU 1 ([7]; 10 μM): 134540 RLU | RLU 2 ([7]; 10 μM): 126580 RLU | RLU 3 ([7]; 10 μM): 130240 RLU | RLU MEAN ([7]; 10 μM): 130453 RLU | RLU specific ([7]; 10 μM): 93190 RLU | % Activation (NF-κB; TNFα = 100%) ([7]; 25 μM): 136.5% | RLU 1 ([7]; 25 μM): 151080 RLU | RLU 2 ([7]; 25 μM): 151840 RLU | RLU 3 ([7]; 25 μM): 143870 RLU | RLU MEAN ([7]; 25 μM): 148930 RLU | RLU specific ([7]; 25 μM): 111667 RLU | fibronectin synthesis increase [8]: 20% | Fibronectin % Control ([8]; 72 h incubation): 120% | Fibronectin % Stimulation ([8]; 72 h incubation): 20% | Fibronectin (ng/ml), single replicates ([8]; 72 h incubation): 6833 ng/mL and 7820 ng/mL | Fibronectin Mean ([8]; 72 h incubation): 7326 ng/mL
